What was measured:
[1] = system: Radical scavenging activity; experiment: Hydroxyl radical scavenging activity at 2 mM; assay type: functional
[2] = system: Radical scavenging activity; experiment: Hydroxyl radical scavenging activity; assay type: functional

Compound	inhibition [1] [%]	IC50 [2] [µM]
CC(C)=CC/C=C(\C)[C@H]1CC[C@]2(C)[C@@H]1[C@H](O)C[C@@H]1[C@@]3(C)CC[C@H](O[C@@H]4O[C@H](CO)[C@@H](O)[C@H](O)[C@H]4O[C@@H]4O[C@H](CO)[C@@H](O)[C@H](O)[C@H]4O)C(C)(C)[C@@H]3CC[C@]12C [GINSENOSIDE RG5]	16	150
C=C(CCC=C(C)C)[C@H]1CC[C@]2(C)[C@@H]1[C@H](O)C[C@@H]1[C@@]3(C)CC[C@H](O[C@@H]4O[C@H](CO)[C@@H](O)[C@H](O)[C@H]4O[C@@H]4O[C@H](CO)[C@@H](O)[C@H](O)[C@H]4O)C(C)(C)[C@@H]3CC[C@]12C	68	–
CC(C)=CCC[C@](C)(O)[C@H]1CC[C@]2(C)[C@@H]1[C@H](O)C[C@@H]1[C@@]3(C)CC[C@H](O[C@@H]4O[C@H](CO)[C@@H](O)[C@H](O)[C@H]4O[C@@H]4O[C@H](CO)[C@@H](O)[C@H](O)[C@H]4O)C(C)(C)[C@@H]3CC[C@]12C	20	440
CC(C)=CCC[C@@](C)(O)[C@H]1CC[C@]2(C)[C@@H]1[C@H](O)C[C@@H]1[C@@]3(C)CC[C@H](O[C@@H]4O[C@H](CO)[C@@H](O)[C@H](O)[C@H]4O[C@@H]4O[C@H](CO)[C@@H](O)[C@H](O)[C@H]4O)C(C)(C)[C@@H]3CC[C@]12C	72	–
O=C(O[C@@H]1Cc2c(O)cc(O)cc2O[C@@H]1c1cc(O)c(O)c(O)c1)c1cc(O)c(O)c(O)c1 [EPIGALOCATECHIN GALLATE]	–	3760

Source: ChEMBL document CHEMBL1146894, “Stereospecificity in hydroxyl radical scavenging activities of four ginsenosides produced by heat processing” (Bioorg Med Chem Lett, 2006)
